Legend:
[1] = target: T1, Amine oxidase [flavin-containing] A (Homo sapiens, UniProt P21397); test: MAO Inhibition Assay
T1 sequence (P21397 whole entry): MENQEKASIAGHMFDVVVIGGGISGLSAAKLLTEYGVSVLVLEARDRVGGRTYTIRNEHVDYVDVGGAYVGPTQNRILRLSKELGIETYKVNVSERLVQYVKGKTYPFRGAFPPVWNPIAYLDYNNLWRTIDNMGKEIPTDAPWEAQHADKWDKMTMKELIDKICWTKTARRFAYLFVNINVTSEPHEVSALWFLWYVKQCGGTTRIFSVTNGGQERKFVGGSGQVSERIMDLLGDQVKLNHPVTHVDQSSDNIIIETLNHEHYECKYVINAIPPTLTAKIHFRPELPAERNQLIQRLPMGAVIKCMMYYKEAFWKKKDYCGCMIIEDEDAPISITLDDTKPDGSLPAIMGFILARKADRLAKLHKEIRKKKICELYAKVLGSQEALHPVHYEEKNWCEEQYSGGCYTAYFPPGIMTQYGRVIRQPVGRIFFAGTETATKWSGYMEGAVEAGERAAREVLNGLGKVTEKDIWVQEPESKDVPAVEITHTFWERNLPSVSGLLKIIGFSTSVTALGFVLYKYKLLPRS
Method: (§1) The protocol for measuring IC50 values for the inhibition of MAO-A and MAO-B has been reported in detail in a recent publication (26). The recombinant human MAO enzymes were used, and kynuramine served as non-selective MAO substrate. The MAOs oxidize kynuramine to ultimately yield a fluorescent metabolite, 4-hydroxyquinoline, which was measured by fluorescence spectrophotometry (kex = 310; kem = 400 nm).

[2] = target: T2, Amine oxidase (Homo sapiens, UniProt Q8TBI1); test: MAO Inhibition Assay
T2 sequence (Q8TBI1 whole entry): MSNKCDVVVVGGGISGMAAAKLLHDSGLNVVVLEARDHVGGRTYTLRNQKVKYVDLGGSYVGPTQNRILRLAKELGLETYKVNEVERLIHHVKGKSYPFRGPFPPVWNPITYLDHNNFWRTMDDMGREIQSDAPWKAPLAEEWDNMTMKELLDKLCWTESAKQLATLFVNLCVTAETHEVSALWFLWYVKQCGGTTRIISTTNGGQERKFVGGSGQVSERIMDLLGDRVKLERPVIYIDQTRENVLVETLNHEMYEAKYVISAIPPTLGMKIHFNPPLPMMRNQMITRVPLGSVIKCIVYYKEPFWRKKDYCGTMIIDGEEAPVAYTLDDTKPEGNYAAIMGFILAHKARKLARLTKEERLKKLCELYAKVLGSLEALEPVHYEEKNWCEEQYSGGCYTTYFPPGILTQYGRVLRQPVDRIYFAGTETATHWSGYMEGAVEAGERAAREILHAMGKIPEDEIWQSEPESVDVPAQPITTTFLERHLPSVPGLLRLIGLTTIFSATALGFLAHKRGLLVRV
Method: as §1

Compound	IC50 [1]	IC50 [2]
COC1=CC(=O)c2ccccc2C1=O	20.4 µM	24.8 µM
CC1=CC(=O)c2c(O)cccc2C1=O	4.91 µM	1.09 µM
O=C1C=CC(=O)c2ccccc21 [1,4-dihydronaphthalene-1,4-dione]	3.43 µM	8.4 µM
O=C1C(Cl)=C(Cl)C(=O)c2ccccc21 [2,3-dichloro-1,4-dihydronaphthalene-1,4-dione]	2 µM	2.61 µM
CC1=C(CCl)C(=O)c2ccccc2C1=O [2-(chloromethyl)-3-methyl-1,4-dihydronaphthalene-1,4-dione (5f)]		10.8 µM
O=C1C(Cl)=C(OCCCCO)C(=O)c2ccccc21 [2-chloro-3-(4-hydroxybutoxy)-1,4-dihydronaphthalene-1,4-dione (5h)]	5.06 µM	3.06 µM
O=C1C(O)=C(Cl)C(=O)c2ccccc21 [2-chloro-3-hydroxy-1,4-dihydronaphthalene-1,4-dione (5g)]		3.45 µM
O=C1C=CC(=O)c2c(O)ccc(O)c21 [5,8-dihydroxy-1,4-naphthoquinone]		0.86 µM
CC(C)=CCC(O)C1=CC(=O)c2c(O)ccc(O)c2C1=O (centres undefined) [5,8-dihydroxy-2-(1-hydroxy-4-methylpent-3-enyl)naphthalene-1,4-dione]	1.5 µM	1.01 µM
O=C1C=CC(=O)c2c(O)cccc21 [5-hydroxy-1,4-dihydronaphthalene-1,4-dione]	1.71 µM	4.36 µM
CC1=CC(=O)c2ccccc2C1=O [Vitamin K3]	10.2 µM	3.02 µM

Reference: BindingDB's records for doi:10.1111/cbdd.12708 (North-West University, 2016)
